Drawing on patent US8343983B2, “Substituted pyrazolo-pyrimidine compounds” (ArQule, Inc., priority 2009, dated 2013), this text covers inhibition for 19 compounds.

The structures appear in SMILES notation. Where two headings read alike, the source gives them in different places.

For the test, the system named is cancer cells. In words: MTS assay: inhibition of cell growth (formazan absorbance at 492 nm after 72 hours with test compound). It counts as cell-based. The settings on record: inhibition class. The method, boiled down: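 DMEM with 1% FBS; cells seeded at 3000/well and grown 18 h at 37 °C, then exposed to compound for 72 h and to MTS/PMS for 4 h. IC50 is the concentration giving a 50% absorbance drop; grades are % inhibition bands.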

Setting [1] is: Homo sapiens, DLD-1 cells, read-out: DLD-1, MTS 72 hours at 10 uM.
Setting [2] is: Homo sapiens, KATO III cells, read-out: KATO III, MTS 72 hours at 10 uM.
[3] abbreviates: Homo sapiens, MDA-MB-231 cells, read-out: MDA-MB-231, MTS 72 hours at 10 uM.
Where [4] appears, read: Homo sapiens, NCI-H1299 cells, read-out: NCI-H1299, MTS 72 hours at 10 uM.
The mark [5] stands for this setting: Homo sapiens, PC-3 cells, read-out: PC-3, MTS 72 hours at 10 uM.
[6] abbreviates: PACA-2 cells, read-out: PACA-2, MTS 72 hours at 10 uM.

On to `CCCCNc1nc2c3c(n[nH]c3n1)CCN2Cc1ccccc1` [Compound 84, 6-benzyl-N-butyl-2,6,7,8-tetrahydro-1,2,3,5,6-pentaazaacenaphthylen-4-amine], for which the inhibition at 10 µM was greater than 79% under setting [1]; greater than 79% under setting [2]; greater than 79% under setting [3]; greater than 79% under setting [4]; greater than 79% under setting [5]; greater than 79% under setting [6].

For the compound `Clc1ccc(CNc2nc3c4c(n[nH]c4n2)CCN3c2ccccc2)cc1` [Compound 213, N-(4-chlorobenzyl)-6-phenyl-2,6,7,8-tetrahydro-1,2,3,5,6-pentaazaacenaphthylen-4-amine], the inhibition at 10 µM runs as follows: under setting [1], less than 50%; under setting [2], less than 50%; under setting [3], less than 50%; under setting [4], 50 to 79%; under setting [5], less than 50%; under setting [6], 50 to 79%.

Turning to `O=C(NCCOc1ccccc1)C1CN(Cc2ccccc2)c2nc(NCc3ccccc3)nc3[nH]nc1c23` (stereo not drawn) [Compound 241, 6-benzyl-4-(benzylmino)-N-(2-phenoxyethyl)-2,6,7,8-tetrahydro-1,2,3,5,6-pentaazaacenaphthylene-8-carboxamide], the inhibition at 10 µM is, setting by setting: under setting [1], less than 50%; under setting [2], less than 50%; under setting [3], less than 50%; under setting [4], less than 50%; under setting [5], less than 50%; under setting [6], less than 50%.

Regarding `c1ccc(CN2CCc3n[nH]c4nc(NCc5ccc6c(c5)OCO6)nc2c34)cc1` [Compound 31, N-(1,3-benzodioxol-5-ylmethyl)-6-benzyl-2,6,7,8-tetrahydro-1,2,3,5,6-pentaazaacenaphthylen-4-amine], the inhibition at 10 µM runs as follows: under setting [1], less than 50%; under setting [2], less than 50%; under setting [3], less than 50%; under setting [4], less than 50%; under setting [5], less than 50%; under setting [6], less than 50%.

Consider `c1ccc(CN2CCc3n[nH]c4nc(N5CCN(c6cnccn6)CC5)nc2c34)cc1` [Compound 56, 6-benzyl-4-(4-pyrazin-2-ylpiperazin-1-yl)-2,6,7,8-tetrahydro-1,2,3,5,6-pentaazaacenaphthylene], for which the inhibition at 10 µM is less than 50% under setting [1]; less than 50% under setting [2]; less than 50% under setting [3]; less than 50% under setting [4]; less than 50% under setting [5]; less than 50% under setting [6].

`c1ccc(N2CCc3n[nH]c4nc(N5CCOCC5)nc2c34)cc1` [Compound 218, 4-morpholin-4-yl-6-phenyl-2,6,7,8-tetrahydro-1,2,3,5,6-pentaazaacenaphthylene]: the inhibition at 10 µM under setting [1] is less than 50%; the inhibition at 10 µM under setting [2] is less than 50%; the inhibition at 10 µM under setting [3] is less than 50%; the inhibition at 10 µM under setting [4] is less than 50%; the inhibition at 10 µM under setting [5] is less than 50%; the inhibition at 10 µM under setting [6] was less than 50%.

As to `Cc1cccc(CCNc2nc3c4c(n[nH]c4n2)CCN3Cc2ccccc2)c1` [Compound 77, 6-benzyl-N-[2-(3-methylphenyl)ethyl]-2,6,7,8-tetrahydro-1,2,3,5,6-pentaazaacenaphthylen-4-amine], the inhibition at 10 µM reads like this: under setting [1], less than 50%; under setting [2], less than 50%; under setting [3], less than 50%; under setting [4], 50 to 79%; under setting [5], less than 50%; under setting [6], less than 50%.

For `c1ccc(CN2CCc3n[nH]c4nc(NC5Cc6ccccc6C5)nc2c34)cc1` [Compound 17, 6-benzyl-N-(2,3-dihydro-1H-inden-2-yl)-2,6,7,8-tetrahydro-1,2,3,5,6-pentaazaacenaphthylen-4-amine], the inhibition at 10 µM under setting [1] was 50 to 79%; the inhibition at 10 µM under setting [2] was in the range of 50 to 79%; the inhibition at 10 µM under setting [3] was less than 50%; the inhibition at 10 µM under setting [4] lay in the range of 50 to 79%; the inhibition at 10 µM under setting [5] was less than 50%; the inhibition at 10 µM under setting [6] is 50 to 79%.

Consider `CSc1nc2c3c(nn(Cc4ccccc4)c3n1)CCN2Cc1ccccc1` [Compound 133, 2,6-dibenzyl-4-(methylsulfanyl)-2,6,7,8-tetrahydro-1,2,3,5,6-pentaazaacenaphthylene], for which the inhibition at 10 µM was greater than 79% under setting [1]; greater than 79% under setting [2]; greater than 79% under setting [3]; greater than 79% under setting [4]; greater than 79% under setting [5]; greater than 79% under setting [6].

Take `Fc1cccc(CCNc2nc3c4c(n[nH]c4n2)CCN3Cc2ccccc2)c1` [Compound 94, 6-benzyl-N-[2-(3-fluorophenyl)ethyl]-2,6,7,8-tetrahydro-1,2,3,5,6-pentaazaacenaphthylen-4-amine]: the inhibition at 10 µM is less than 50% under setting [1]; less than 50% under setting [2]; less than 50% under setting [3]; less than 50% under setting [4]; less than 50% under setting [5]; less than 50% under setting [6].

Regarding `CN1CCN(c2nc3c4c(n[nH]c4n2)C(C(=O)NCc2ccccc2)CN3Cc2ccccc2)CC1` (stereo not drawn) [Compound 228, N,6-dibenzyl-4-(4-methylpiperazin-1-yl)-2,6,7,8-tetrahydro-1,2,3,5,6-pentaazaacenaphthylene-8-carboxamide], the inhibition at 10 µM was less than 50% under setting [1]; less than 50% under setting [2]; less than 50% under setting [3]; less than 50% under setting [4]; less than 50% under setting [5]; less than 50% under setting [6].

For `COc1ccc(CN2CCc3nn(Cc4ccccc4)c4nc(SC)nc2c34)cc1` [Compound 129, 2-benzyl-6-(4-methoxybenzyl)-4-(methylsulfanyl)-2,6,7,8-tetrahydro-1,2,3,5,6-pentaazaacenaphthylene], the inhibition at 10 µM reads like this: under setting [1], less than 50%; under setting [2], less than 50%; under setting [3], less than 50%; under setting [4], less than 50%; under setting [5], less than 50%; under setting [6], less than 50%.

`COc1ccc(CN2CCCc3n[nH]c4nc(NCc5ccccc5)nc2c34)cc1` [Compound 247, N-benzyl-6-(4-methoxybenzyl)-6,7,8,9-tetrahydro-2H-1,2,3,5,6-pentaazabenzo[cd]azulen-4-amine]: the inhibition at 10 µM under setting [1] is less than 50%; the inhibition at 10 µM under setting [2] is less than 50%; the inhibition at 10 µM under setting [3] was less than 50%; the inhibition at 10 µM under setting [4] was less than 50%; the inhibition at 10 µM under setting [5] was less than 50%; the inhibition at 10 µM under setting [6] was less than 50%.

On to `COc1cccc(CCNc2nc3c4c(n[nH]c4n2)C(C(=O)NCc2ccccc2)CN3Cc2ccccc2)c1` (stereo not drawn) [Compound 224, N,6-dibenzyl-4-{[2-(3-methoxyphenyl)ethyl]amino}-2,6,7,8-tetrahydro-1,2,3,5,6-pentaazaacenaphthylene-8-carboxamide], for which the inhibition at 10 µM is, setting by setting: under setting [1], less than 50%; under setting [2], less than 50%; under setting [3], less than 50%; under setting [4], less than 50%; under setting [5], less than 50%; under setting [6], less than 50%.

On to `c1ccc(CN2CCc3n[nH]c4nc(N5CCN(c6ccccn6)CC5)nc2c34)cc1` [Compound 95, 6-benzyl-4-(4-pyridin-2-ylpiperazin-1-yl)-2,6,7,8-tetrahydro-1,2,3,5,6-pentaazaacenaphthylene], for which the inhibition at 10 µM runs as follows: under setting [1], less than 50%; under setting [2], less than 50%; under setting [3], less than 50%; under setting [4], less than 50%; under setting [5], less than 50%; under setting [6], less than 50%.

Consider `COc1cccc(CCNc2nc3c4c(n[nH]c4n2)CCN3Cc2ccccc2)c1OC` [Compound 39, 6-benzyl-N-[2-(2,3-dimethoxyphenyl)ethyl]-2,6,7,8-tetrahydro-1,2,3,5,6-pentaazaacenaphthylen-4-amine], for which the inhibition at 10 µM under setting [1] is less than 50%; the inhibition at 10 µM under setting [2] was less than 50%; the inhibition at 10 µM under setting [3] was less than 50%; the inhibition at 10 µM under setting [4] was less than 50%; the inhibition at 10 µM under setting [5] is less than 50%; the inhibition at 10 µM under setting [6] was less than 50%.

For the compound `Cc1ccc(C)c(CCNc2nc3c4c(n[nH]c4n2)CCN3Cc2ccccc2)c1` [Compound 86, 6-benzyl-N-[2-(2,5-dimethylphenyl)ethyl]-2,6,7,8-tetrahydro-1,2,3,5,6-pentaazaacenaphthylen-4-amine], the inhibition at 10 µM is, setting by setting: under setting [1], less than 50%; under setting [2], 50 to 79%; under setting [3], less than 50%; under setting [4], 50 to 79%; under setting [5], less than 50%; under setting [6], less than 50%.

As for `c1ccc(CN2CCc3n[nH]c4nc(N5CCN(Cc6cccnc6)CC5)nc2c34)cc1` [Compound 88, 6-benzyl-4-[4-(pyridin-3-ylmethyl)piperazin-1-yl]-2,6,7,8-tetrahydro-1,2,3,5,6-pentaazaacenaphthylene], the inhibition at 10 µM under setting [1] was less than 50%; the inhibition at 10 µM under setting [2] is greater than 79%; the inhibition at 10 µM under setting [3] is greater than 79%; the inhibition at 10 µM under setting [4] was less than 50%; the inhibition at 10 µM under setting [5] was greater than 79%; the inhibition at 10 µM under setting [6] was less than 50%.

With `CN(C)CCCNc1nc2c3c(n[nH]c3n1)CCN2Cc1ccccc1` [Compound 91, N′-(6-benzyl-2,6,7,8-tetrahydro-1,2,3,5,6-pentaazaacenaphthylen-4-yl)-N,N-dimethylpropane-1,3-diamine], the inhibition at 10 µM is 50 to 79% under setting [1]; greater than 79% under setting [2]; greater than 79% under setting [3]; less than 50% under setting [4]; greater than 79% under setting [5]; less than 50% under setting [6].
